Laboratory results taken from publication PMC11276905 (International Journal of Molecular Sciences, 2024).
“Also recorded” adds a separate entry of the source. Read-outs that look alike come from different tables or passages of the source. Where a SMILES comes first, the peptide text is derived from it. The star is where a group is joined. MeOSuc = COC(=O)CCC(=O)*; CH2Cl = ClC*

What was measured:
[1] = target: T1, HNE in U937 cells (Homo sapiens, UniProt P08246); assay: Intracellular HNE inhibition in cultured U937 cells (residual activity in lysates); assay type: cell-based; conditions: for time course of HNE inhibition in U937 cells (in words): 0-26 h culture; for effect on HNE activity in the U937 cell culture model (in words): 0-26 h, increasing concentrations, alvelestat and sivelestat up to more than 1000-fold above Ki
T1 construct: the myeloid cell line U937, which can differentiate into neutrophils [25] and expresses HNE; host or cells: U937 (histiocytic lymphoma), undifferentiated
T1 sequence (P08246 30-247 limits assumed): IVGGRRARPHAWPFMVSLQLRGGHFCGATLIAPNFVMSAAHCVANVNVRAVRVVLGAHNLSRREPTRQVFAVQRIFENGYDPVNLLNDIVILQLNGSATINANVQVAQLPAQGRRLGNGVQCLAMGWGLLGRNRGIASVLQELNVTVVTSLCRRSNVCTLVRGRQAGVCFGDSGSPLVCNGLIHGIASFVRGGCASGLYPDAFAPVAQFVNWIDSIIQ
Procedure: (§3) The enzymatic activity of HNE was measured using a fluorescence-based assay in 96-well black bottom plates (Corning®, 003916, New York, NY, USA). HNE (0.5 nM) or cell lysates (20 µL, ~100 PMN/µL, ~1000 U937/µL, ~5000 HL-60/µL or ~1000 HMC-1/µL) were diluted in assay buffer (200 mM TRIS HCl, 500 mM NaCl, 0.05% Tween-20, pH 8.0). […] AMC (7-Amino-4-methylcoumarin) standard curves were generated by measuring serial dilutions of the fluorophore AMC (1 µM–0 µM) in assay buffer on the same plate and used to calculate nM AMC generation from fluorescence measurements.
(§4) U937 cells were plated in sterile 96-U-well plates (92697, TPP, Trasadingen, Switzerland) at a density of 100 cells/µL in a cell culture medium (180 µL per well). Increasing concentrations of inhibitors and solvent controls were diluted in a culture medium and added (20 µL/well) to the 96-well plate 26 h, 6 h, 3 h, and 0 h before harvesting and lysing the cells (see below). Plates were kept at 37 °C, 5% CO2, and 95% humidity throughout the incubation period. […] Similarly, freshly isolated PMN were plated at 50–100 cells/µL in PBS (1 g/L glucose) and incubated for 1 h with inhibitors or controls.
(§5) For cell lysis, cells were pelleted in the microtiter plates by centrifugation (400× g, 10 min, 4 °C) and washed three times in PBS (4 °C). Washed cells were then lysed by adding lysis buffer (PBS, 1 M NaCl, 0.1% Tween-20, pH 7.4) and freeze–thawing on dry ice. Finally, lysates were centrifuged (2100× g) to remove cell debris. Enzymatic activity of HNE was determined as described above, and residual activity present after incubation with inhibitors expressed as % of matched solvent controls.

[2] = test system: U937 cells; assay: LDH release from U937 cells; assay type: cell-based, human; conditions: after 26 h
Procedure: Cytotoxicity of the inhibitors was determined by analyzing the release of lactate dehydrogenase (LDH) into the cell culture medium using the LDH cytotoxicity kit II (PromoKine, Heidelberg, Germany) or the more sensitive Pierce LDH cytotoxicity assay kit (Thermo Scientific, Darmstadt, Germany) following the manufacturer’s instructions.

[3] = Inhibitor stability in serum-free cell culture medium; assay type: physicochemical; conditions: 26 h, 37 °C
Procedure: Inhibitors were prepared as above and incubated for 26 h in RPMI at 37 °C. Residual inhibitor activity was compared to the activity of freshly prepared compounds by measuring the inhibition of HNE.

[4] = target: T2, isolated HNE (Homo sapiens, UniProt P08246); assay: Formation and dissociation of the HNE/inhibitor complex (pre-steady-state kinetics); assay type: biochemical; conditions: for kon: pre-steady-state kinetics, HNE 0.6 nM, 37 °C, mean ± SD; for koff: koff = Ki × kon, irreversible inhibitors ≈ zero
T2 construct: immediately processed to its active form in the trans-Golgi before being targeted to azurophil granules; purchased Merck (Darmstadt, Germany) 324681
T2 sequence (P08246 30-267): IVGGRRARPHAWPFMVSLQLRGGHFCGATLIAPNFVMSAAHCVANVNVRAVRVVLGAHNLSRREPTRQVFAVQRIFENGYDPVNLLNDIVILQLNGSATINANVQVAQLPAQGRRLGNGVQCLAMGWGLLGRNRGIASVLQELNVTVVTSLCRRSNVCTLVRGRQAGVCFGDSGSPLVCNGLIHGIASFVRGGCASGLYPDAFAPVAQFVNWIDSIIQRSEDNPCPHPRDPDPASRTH
Procedure: To determine the association rates (kon) of the inhibitors, the enzymatic activity of HNE (0.6 nM) was recorded continuously in an SFM25 fluorometer (Biotek Kontron, Neufahrn, Germany) by following the cleavage of MeOSuc-AAPV-AMC (10 µM) at 37 °C. When a constant rate was established (i.e., after 1–5 min), an inhibitor was added, and the reaction followed for up to 60 min. The pseudo-first-order rate constant kobs was obtained by fitting the observed presteady-state progress curve to the integrated equation of Morrison with pro-Fit. Apparent second-order rate constants were subsequently calculated as k2/Ki = kobs/It by linear regression from several independent experiments using a range of concentrations. For reversible inhibitors, the dissociation rate koff was subsequentially calculated as koff = Ki × kon; for irreversible inhibitors, koff is ≈ zero. Finally, the halftime of the HNE/inhibitor complex formation and dissociation were calculated as t1/2,on = 0.693/(kass × It + koff) and t1/2,off = 0.693/koff, respectively.

[5] = target: T3, HNE in mature PMN (Homo sapiens, UniProt P08246); assay: Intracellular HNE inhibition in freshly isolated mature PMN
T3 sequence (P08246 30-247 limits assumed): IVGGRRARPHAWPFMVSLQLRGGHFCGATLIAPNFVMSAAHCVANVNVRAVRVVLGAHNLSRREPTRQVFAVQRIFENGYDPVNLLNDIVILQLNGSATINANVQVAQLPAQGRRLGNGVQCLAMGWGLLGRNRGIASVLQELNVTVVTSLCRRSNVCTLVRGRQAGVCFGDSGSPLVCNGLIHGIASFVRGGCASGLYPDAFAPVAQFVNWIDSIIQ
Procedure: Peripheral venous blood was collected from six healthy donors after informed consent (votum 018-09 of the local ethics committee), and differential blood counts were performed. Neutrophil granulocytes were isolated using the MACSxpress neutrophil isolation kit (Miltenyi Biotec, Bergisch Gladbach, Germany) following the manufacturer’s instructions. Residual erythrocytes were eliminated by hypotonic lysis. Neutrophils were resuspended in PBS with glucose (1 g/L) at a density of 50–100 cells/µL. The purity of the final cell population was analyzed by staining a smear using Pappenheim’s method and counting ≥200 cells using a light microscope.
as §3, §4, §5

[6] = target: T4, isolated HNE (human neutrophil elastase) (Homo sapiens, UniProt P08246); assay: Inhibition of isolated HNE, steady-state kinetics (MeOSuc-AAPV-AMC); assay type: biochemical; conditions: read-out: IC50(60min), isolated HNE; irreversible inhibitors, incubated 1 h, logistic fit, mean ± SD
T4 construct: immediately processed to its active form in the trans-Golgi before being targeted to azurophil granules; purchased Merck (Darmstadt, Germany) 324681
T4 sequence (P08246 30-267): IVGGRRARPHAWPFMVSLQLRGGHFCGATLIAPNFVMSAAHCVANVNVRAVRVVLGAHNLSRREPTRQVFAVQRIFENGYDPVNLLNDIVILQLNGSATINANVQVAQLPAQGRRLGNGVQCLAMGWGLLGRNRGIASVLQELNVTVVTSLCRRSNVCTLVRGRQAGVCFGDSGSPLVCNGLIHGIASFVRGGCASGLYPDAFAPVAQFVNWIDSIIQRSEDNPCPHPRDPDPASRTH

[7] = test system: U937 cells; assay: Proliferation of U937 cells; assay type: cell-based, human; conditions: concentrations ≥300 µM
Procedure: U937 cells were plated in sterile 96-U-well plates (92697, TPP, Trasadingen, Switzerland) at a density of 100 cells/µL in a cell culture medium (180 µL per well). Increasing concentrations of inhibitors and solvent controls were diluted in a culture medium and added (20 µL/well) to the 96-well plate 26 h, 6 h, 3 h, and 0 h before harvesting and lysing the cells (see below). Plates were kept at 37 °C, 5% CO2, and 95% humidity throughout the incubation period.

[8] = target: T5, HNE in U937 lysates (Homo sapiens, UniProt P08246); assay: Inhibition of HNE activity in U937 lysates; assay type: biochemical
T5 construct: the myeloid cell line U937, which can differentiate into neutrophils [25] and expresses HNE; host or cells: U937 (histiocytic lymphoma), undifferentiated
T5 sequence (P08246 30-247 limits assumed): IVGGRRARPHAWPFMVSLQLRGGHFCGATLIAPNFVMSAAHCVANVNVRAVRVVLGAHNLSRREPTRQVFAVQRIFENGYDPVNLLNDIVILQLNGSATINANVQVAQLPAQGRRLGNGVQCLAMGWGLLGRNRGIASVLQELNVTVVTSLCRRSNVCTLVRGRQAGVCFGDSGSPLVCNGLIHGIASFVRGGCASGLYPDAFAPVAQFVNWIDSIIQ
Procedure: (§1) For the quantification and characterization of HNE-like activity in cell lysates, the density of the sample cell suspension was first quantified using a CASY-1 cell counter.
(§2) To determine the inhibition constants of reversible inhibitors with isolated HNE and HNE in cell lysates, HNE (0.5 nM) and U937 lysates (1000 cells/µL) were incubated with serial dilutions of the compounds in assay buffer at 37 °C for ≥ 1 h. Subsequently, residual HNE activity was measured as described above and compared to the activity of uninhibited HNE. […] The inhibition curves generated were fitted to Morrisons’s equation to obtain the dissociation equilibrium constant Ki with pro-Fit (Quantum Soft, Uetikon am See, Switzerland) using a Levenberg–Marquardt algorithm.

[9] = target: T4, isolated HNE (human neutrophil elastase); assay: Inhibition of isolated HNE, steady-state kinetics (MeOSuc-AAPV-AMC); assay type: biochemical
Procedure: as §2

[10] = test system: elastase-like activity in HL-60 lysates; assay: Inhibition of elastase-like activity in HL-60 lysates; assay type: biochemical, human; conditions: 1 h, 37 °C
Description: as §1

[11] = target: T6, elastase-like activity (HNE) in PMN lysates (Homo sapiens, UniProt P08246); assay: Inhibition of elastase-like activity in PMN lysates; assay type: biochemical; conditions: 1 h, 37 °C
T6 construct: from tissue; host or cells: neutrophil granulocytes from peripheral venous blood of healthy human donors
T6 sequence (P08246 30-247 limits assumed): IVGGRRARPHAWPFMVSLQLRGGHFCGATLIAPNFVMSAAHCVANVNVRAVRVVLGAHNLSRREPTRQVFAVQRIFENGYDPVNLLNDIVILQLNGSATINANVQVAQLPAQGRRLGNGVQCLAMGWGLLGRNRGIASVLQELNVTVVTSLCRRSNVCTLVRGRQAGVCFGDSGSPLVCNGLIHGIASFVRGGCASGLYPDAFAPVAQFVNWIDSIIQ
Description: Residual erythrocytes were eliminated by hypotonic lysis.
as §1

[12] = target: T7, eglin C (Hirudo medicinalis, UniProt P01051); assay: steady-state inhibition, Morrison fit, isolated HNE
T7 chain: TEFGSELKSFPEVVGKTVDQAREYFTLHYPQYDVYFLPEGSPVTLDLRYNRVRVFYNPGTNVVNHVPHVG

[13] = target: T7, eglin C; assay: steady-state inhibition, Morrison fit, U937 lysate
[14] = test system: surface of neutrophils; parameters: method as in earlier work; conditions: ref 41 (Braun and Schnebli); read-out: surface binding affinity Kd; cited from earlier work
[15] = read-out: IC50, HNE in PMN, 1 h incubation

COC(=O)CCC(=O)N[C@@H](C)C(=O)N[C@@H](C)C(=O)N1CCC[C@H]1C(=O)N[C@H](C(=O)CCl)C(C)C [MeOSuc-AAPV-CMK] (MeOSuc-AAPV-CH2Cl)
time course of HNE inhibition in U937 cells (in words) [1]: inhibit HNE in U937 cells increasingly over the 26 h observation period

Cl.NCCc1ccc(S(=O)(=O)F)cc1 [Pefabloc SC]
LDH release from U937 cells ([2]; 1000 and 300 µM): 12 ± 2%
decrease of inhibitory activity after incubation in medium ([3]; serum-free medium (RPMI)): approximately 50%
kon [4]: 1.0 ± 0.1 M⁻¹ s⁻¹
IC50 [5, 15]: ~100 µM
IC50 [6]: 130 µM
reduction of U937 cell proliferation [7]: 50 ± 3%
inhibition of elastase-like activity in U937 lysate ([8]; 1 mM, 1 h, 37 °C): 91 ± 0.6%
IC50 ([8]; read-out: IC50(60min), U937 lysate, irreversible inhibitors, incubated 1 h, logistic fit, mean ± SD): 130 µM
inhibition of activity of isolated HNE ([9]; 1 mM, 1 h, 37 °C, HNE 0.5 nM): 98 ± 0.6%
inhibition of isolated HNE ([9]; at ~10^−3 M): nearly complete inhibition
inhibition of elastase-like activity in HL-60 lysate ([10]; 1 mM): 95 ± 1%
time course of HNE inhibition in U937 cells (in words) [1]: increases during the first 6 h; also recorded: lose effectiveness over time
IC50 ([1]; 0 h incubation, read-out: IC50, HNE in U937 cells at 0 h): ~100 µM
inhibition of HNE in intact U937 cells ([1]; at ~10^−3 M): nearly complete inhibition
IC50 ([1]; intact U937 cells, time not specified, read-out: IC50, HNE in intact U937 cells): ~100 µM
IC50 ([1]; read-out: IC50, HNE in U937 cells at 6 h, 6 h incubation): ~10 µM
inhibition of elastase-like activity in PMN lysate ([11]; 1 mM): 97 ± 0.6%

COc1cc(C(C)C)c2c(c1)S(=O)(=O)N(COc1cc(=O)n3cccc(OCCN4CCCCC4)c3n1)C2=O [SSR 69071]
LDH release from U937 cells ([2]; 12.5 µM): 12 ± 2%
stability in cell culture medium (in words) ([3]; serum-free medium): appeared stable
koff [4]: 9.2e-05 s⁻¹
kon [4]: 2.8 ± 0.06 × 10^5 M^−1 s^−1
Ki ([8]; U937 lysate 1000 cells/µL, incubated 1 h 37 °C, Morrison fit, mean ± SD): 0.00033 µM
time course of HNE inhibition in U937 cells (in words) [1]: most effective immediately after addition and then lose effect over time; also recorded: lose effectiveness over time

CC(C)(C)C(=O)Oc1ccc(S(=O)(=O)Nc2ccccc2C(=O)NCC(=O)O)cc1 [Sivelestat, sivelestat]
half-life of the complex with HNE (in words) [4]: seconds to a few minutes
effect on HNE in mature PMN (in words) ([5]; 1 h incubation): negligible effect
potency in PMN compared with U937 cells (in words) ([5]; PMN 1 h vs U937 0-3 h): somewhat more effective in PMN than U937 cells
inhibition at 4 µM ([8]; 4 µM, 1 h, 37 °C, read-out: inhibition of elastase-like activity in U937 lysate): 96 ± 0.3%
inhibition at 4 µM ([9]; 4 µM, 1 h, 37 °C, HNE 0.5 nM): 99 ± 0.3%
inhibition of elastase-like activity in HL-60 lysate ([10]; 4 µM): 2 ± 1.2%
effect on HNE activity in the U937 cell culture model (in words) [1]: no detectable effect; also recorded: no measurable effect; also recorded: do not cause detectable intracellular inhibition
inhibition at 4 µM ([11]; 4 µM, read-out: inhibition of elastase-like activity in PMN lysate): 97 ± 0.6%

B1: neutrophil elastase (protein)
chain: IVGGRRARPHAWPFMVSLQLRGGHFCGATLIAPNFVMSAAHCVANVNVRAVRVVLGAHNLSRREPTRQVFAVQRIFENGYDPVNLLNDIVILQLNGSATINANVQVAQLPAQGRRLGNGVQCLAMGWGLLGRNRGIASVLQELNVTVVTSLCRRSNVCTLVRGRQAGVCFGDSGSPLVCNGLIHGIASFVRGGCASGLYPDAFAPVAQFVNWIDSIIQRSEDNPCPHPRDPDPASRTH
Ki [12]: 0.013 nM
Ki [13]: 0.00019 µM

B2: Eglin C: small leech-derived protein (70 amino acids, 8091 Da), proteinase inhibitor (protein, UniProt P01051 1-70, looked up)
Eglin C: TEFGSELKSFPEVVGKTVDQAREYFTLHYPQYDVYFLPEGSPVTLDLRYNRVRVFYNPGTNVVNHVPHVG
Kd [14]: 0.2 µM
koff [4]: 3.8e-05 s⁻¹
kon [4]: 2.9 ± 0.09 × 10^6 M^−1 s^−1
effect on HNE in mature PMN (in words) ([5]; 1 h incubation): inhibits intracellular HNE but only in mature neutrophils
IC50 [5, 15]: ~0.02 µM
IC50 ([5]; read-out: IC50 for the inhibition of intracellular HNE, mature neutrophils): 0.02 µM
fold less effective on HNE in cell lysates than on isolated HNE ([8]; U937 lysate vs isolated HNE): 10 fold
fold less potent in PMN lysates ([8]; printed 'PMN lysates'): ~ 10 fold
effect on HNE activity in the U937 cell culture model (in words) [1]: do not inhibit HNE
effect on HNE in U937 cells ([1]; 10 µM, after 26 h): little effect
